“Also recorded” adds a separate entry of the source.
Columns and labels:
[1] = ref PubChem database, cited from earlier work
[2] = system: DENV-2 luciferase-expressing replicon; experiment: Replicon luciferase assay in Huh7 cells; type: cell-based, dengue virus; conditions: 3 μM vandetanib, Huh7, up to 52 h posttransfection
Procedure: (§1) FIG 5 Vandetanib and spautin-1 inhibit dengue maturation and egress in a VPS34-independent manner. […] Cells were pretreated for 1 h, infected for 1 h at an MOI of 0.5 PFU/cell, and posttreated for an additional 23 h. N = 4, one-way ANOVA with Dunnett’s multiple-comparison test. ns, not significant (P > 0.05); **, P < 0.01; ****, P < 0.0001. (C) Huh7 cells transfected with a luciferase-expressing RNA replicon were treated with 3 μM vandetanib (orange) or 1% DMSO vehicle control (black) for 1 h prior to transfection and up to 52 h posttransfection. Luciferase intensity was quantified as a measure of viral protein abundance. Luciferase intensity was shown as relative light units (RLU). The use of an RNA replicon that is directly transfected into cells reflects only translation and RNA replication steps of viral infection, not viral packaging or cell exit. N = 4, two-way ANOVA with Sikak’s multiple-comparison test. […] (D) VPS34 was not required for spautin-1 or vandetanib anti-dengue activity. […]
A dengue replicon derived from the dengue virus strain 16681 expressing Renilla luciferase and dengue nonstructural proteins has been previously established ([7], [64]). […] Transfected cells were harvested and analyzed using the Renilla luciferase assay system (Promega BioSystems). Luciferase intensity was measured with a GloMax luminometer (10-s signal integration; Promega BioSystems).

BHK-21 and Huh7 cells = experiment: Cell viability by WST assay in uninfected cells (Table S1); type: cell-based; conditions: cell viability relative to vehicle at these doses
Procedure: Supplementary file : TABLE S1 Summary of hits for lead compounds ARDP0006 and ST-148 screened for anti-dengue activity in tissue culture cells. Hit compounds were tested for anti-dengue activity and cell toxicity in tissue culture cell lines. Antiviral activity is summarized as follows: −, not antiviral, with titer greater than 50% of vehicle; +, weakly antiviral, with titer between 20 and 50% of vehicle; ++, moderately antiviral, with titer between 5 and 20% of vehicle; +++, highly antiviral, with titer less than 5% of vehicle. Toxicity at these doses is represented as follows: −, nontoxic, with cell viability greater than 80% of vehicle; +, mild toxicity, with cell viability between 60 and 80% of vehicle; +++, high toxicity, with cell viability less than 60% of vehicle. Data summarized here are depicted graphically in Fig. S1 and Fig. 2C, 3C, and [4]C. […]
Supplementary file : FIG S1 Initial screening of eliminated hit compounds for anti-dengue activity in tissue culture cells. […] Cell viability in uninfected cells in the presence of compounds for 48 h was measured by WST assay (gray). […]
Mock-infected wells were used to determine cell viability in the presence of chemical compounds compared to 1% DMSO vehicle control. Cell viability was determined using the WST-1 kit (Abcam) per the manufacturer’s instructions. […]

dengue virus [3] = experiment: Antiviral activity in VPS34 knockout Huh7 cells; type: cell-based; conditions: 5 μM compound, MOI 0.5, 24 hpi
Procedure: as §1, with “activity. Wild-type and VPS34 knockout Huh7 cells were treated with 5 μM spautin-1, 5 μM vandetanib, or DMSO. Cells were pretreated, infected at an MOI of 0.5, and posttreated as described above for panels A and B. At 24 hpi, cellular supernatant was collected and titered by plaque assay. N ≥ 3. One-way ANOVA with Dunnett’s multiple-comparison test; *, P < 0.05; **, P < 0.01; ***, P < 0.001; ****, P < 0.0001.” for “activity.”

dengue virus [4] = experiment: Extracellular and intracellular virus quantification in Huh7 cells; type: cell-based; conditions: IC90 dose (spautin-1 2.4 μM, vandetanib 3.6 μM), Huh7, 24 hpi
Procedure: FIG 5 Vandetanib and spautin-1 inhibit dengue maturation and egress in a VPS34-independent manner. […] Cells were pretreated for 1 h, infected for 1 h at an MOI of 0.5 PFU/cell, and posttreated for an additional 23 h. N = 4, one-way ANOVA with Dunnett’s multiple-comparison test. ns, not significant (P > 0.05); **, P < 0.01; ****, P < 0.0001. (C) Huh7 cells transfected with a luciferase-expressing RNA replicon were treated with 3 μM vandetanib (orange) or 1% DMSO vehicle control (black) for 1 h prior to transfection and up to 52 h posttransfection. Luciferase intensity was quantified as a measure of viral protein abundance. Luciferase intensity was shown as relative light units (RLU). The use of an RNA replicon that is directly transfected into cells reflects only translation and RNA replication steps of viral infection, not viral packaging or cell exit. N = 4, two-way ANOVA with Sikak’s multiple-comparison test. […] (D) VPS34 was not required for spautin-1 or vandetanib anti-dengue activity. Wild-type and VPS34 knockout Huh7 cells were treated with 5 μM spautin-1, 5 μM vandetanib, or DMSO. Cells were pretreated, infected at an MOI of 0.5, and posttreated as described above for panels A and B. At 24 hpi, cellular supernatant was collected and titered by plaque assay. N ≥ 3. One-way ANOVA with Dunnett’s multiple-comparison test; *, P < 0.05; **, P < 0.01; ***, P < 0.001; ****, P < 0.0001.
After 1 h, virus inoculum was aspirated and replaced with medium containing compounds or 1% DMSO. After 24-h total infection, extracellular virus was collected in cellular supernatant and quantified by plaque assay. To collect intracellular virus, cells were washed with PBS, incubated for 3 min at 4°C with high-salt buffer (1 M NaCl, 50 mM sodium bicarbonate [pH 9.5]) to detach cell-associated extracellular virus ([63]), washed twice with PBS, detached with 0.25% trypsin-EDTA, and isolated by centrifugation (500 × g, 5 min, 4°C). Infected cell pellets were resuspended in 750 μl cell culture medium, lysed by repeated freeze/thaw in liquid nitrogen followed by 37°C water bath. Debris was removed by centrifugation (3,200 × g, 5 min, 4°C), and infectious intracellular virus was quantified by BHK-21 plaque assay.

COc1cc2c(Nc3ccc(Br)cc3F)ncnc2cc1OCC1CCN(C)CC1 [Vandetanib, vandetanib]
LD50 ([1]; Oral, single dose): > 1000 mg/kg | Acute toxicity in words (Table S2) ([1]; healthy mice): only mildly toxic | Luciferase production of replicon [2]: no effect on luciferase production; also recorded: no significant differences | Toxicity (BHK-21 and Huh7 cells): − (nontoxic, with cell viability greater than 80% of vehicle) | Antiviral activity in VPS34 knockout cells (dengue virus [3]): retained significant antiviral activity; also recorded: retained their ability to limit dengue virus egress | Extracellular viral titer (dengue virus [4]): significantly reduced; also recorded: reduced extracellular virus | Infectious intracellular virus (dengue virus [4]): unchanged; also recorded: abundant intracellular virus
